According to patent US20220273709A1, “DEVELOPMENT OF THERAPY FOR IMPROVING MYOCARDIAL CONTRACTION AND METHOD FOR INHIBITING CARDIOMYOCYTE DEATH” (KYUSHU UNIVERSITY, NATIONAL UNIVERSITY CORPORATION, priority 2019, published 2022):

What was measured:
[1] = tested on: primary cultured offspring rat myocardial cells; assay: Stat phosphorylation in primary cultured offspring rat myocardial cells after IFNγ, IL4 or IL10; type: cell-based
Method: IFNγ, IL4 or IL10 was administered to primary cultured offspring rat myocardial cells, and the changes in phosphorylation of proteins (Stat1, Stat6, and Stat3) were evaluated.

[2] = tested on: inflammatory cells; myocardial cells; assay: Cell death after IFNγ administration to inflammatory cells or myocardial cells; type: cell-based
myocardial fibroblasts = assay: TGFβ administration to myocardial fibroblasts pretreated with IFNγ; type: cell-based
Method: The changes in expression levels of proteins when TGFβ was administered to myocardial fibroblasts pretreated with IFNγ were evaluated.
FIG. 39(a) is a western blot showing the expression levels of proteins (pSmad2, Smad2, pSmad3, and Smad3) when TGFβ was administered to myocardial fibroblasts pretreated with IFNγ (n=4). FIG. 39(b) is a graph quantifying the results of FIG. 39(a). The dose of IFNγ used for the pretreatment is 0, 1, 10, or 50 ng/mL, and the dose of TGFβ is 10 ng/mL. In the control group (CTL), neither IFNγ nor TGFβ was administered. Each graph is shown as a relative value in which the phosphorylation ratio (for example, pSmad2Smad2) in the CTL group is set to 1.0. When TGFβ was administered, Smad2 and Smad3 were phosphorylated, and the expression levels of pSmad2 and pSmad3 were increased.
FIG. 39(c) is a graph showing the expression levels of proteins (Ctgf, Col1a, and Col3a) when TGFβ was administered to myocardial fibroblasts pretreated with IFNγ (n=3 to 6). The dose of IFNγ used for the pretreatment is 0, 1, 10, or 50 ng/mL, and the dose of TGFβ is 10 ng/mL. Each graph is shown as a relative value in which the phosphorylation ratio (for example, pSmad2Smad2) in the CTL group is set to 1.0. In the graph, ** represents P<0.01, which is at a significant level with respect to the expression level of the CTL group.

[3] = tested on: primary cultured myocardial fibroblasts; assay: Fibrosis gene expression in myocardial fibroblasts after IFNγ, IL4 or IL10; type: cell-based; details: 1, 10, and 50 ng/mL, vs non-administration group (Veh)
Method: The changes in expression levels of genes (Ctgf Col1a, and Col3a) involved in fibrosis after IFNγ, IL4, or IL10 was administered to primary cultured myocardial fibroblasts were evaluated in order to investigate the mechanism by which the TGF β-Smad signaling system was inhibited due to the administration of α-GalCer/DC (number of administered cells: 3×10^6).
FIG. 38 is a graph showing changes in the expression levels of genes (Ctgf, Col1a, and Col3a) after the administration of IFNγ, IL4, or IL10 to myocardial fibroblasts. IFNγ, IL4, and IL10 were respectively administered at concentrations of 1, 10, and 50 ng/mL. Rps18 was used as an intrinsic control. “Veh” in the graphs represents a non-administration group (Vehicle).

[4] = tested on: cultured myocardial cells; assay: IFN-γ stimulation of cultured myocardial cells, pPLN and p-Stat1 (SDS-PAGE); type: cell-based
Method: The cultured myocardial cells were stimulated by adding IFN-γ solutions with three different concentrations (1, 10, and 50 ng/mL), and changes in concentration of pPLN were evaluated by ^-the SDS-PAGE method.
The cultured myocardial cells were stimulated by adding 50 ng/mL of an IFN-γ solution, and a change in concentration of pPLN over time was evaluated by the SDS-PAGE method.

[5] = tested on: primary cultured myocardial fibroblasts; assay: Stat expression and phosphorylation in myocardial fibroblasts treated with IFNγ, IL4 or IL10; type: cell-based; details: vs CTL
Method: The primary cultured myocardial fibroblasts were treated with IFNγ, IL4, or IL10, and each of the expression levels of proteins (Stat1, Stat6, and Stat3) and the phosphorylation thereof were evaluated.

[6] = tested on: offspring rat myocardial cells; assay: Changes in expression levels of Angpt1 due to cytokine administration; type: cell-based; details: vs CTL group
Method: The changes in the expression levels of an angiogenic factor Angpt1 after administration of IFNγ, IL4, or IL10 to offspring rat myocardial cells were evaluated (each n=3).

[7] = tested on: mice with DOX cardiomyopathy; assay: Effect of αGalCer on DOX mice: cardiac function and inflammatory cytokines; type: in vivo; details: Days 7 and 14
[8] = tested on: mice with DOX cardiomyopathy; assay: as above; type: in vivo; details: for apoptosis of myocardial cells (TUNEL staining) / left ventricular end-systolic dimension (LVDs) / left ventricular fractional shortening rate (FS): DOX group or GalCer+DOX group; for WH/TL and LV/TL: DOX group vs Control, GalCer+DOX group vs DOX group
Method: 10-week-old male C57BL/6J mice were divided into four groups of a Control group, a GalCer group, a DOX group, and a GalCer+DOX group. Hereinafter, the administration method will be described by setting the day when doxorubicin was initially administered as Day 0 (FIG. 4(a)).
PBS (phosphate buffered saline) was intraperitoneally administered (ip) and physiological saline was intravenously administered to the mice of the Control group on Day-7 (7 days before Day 0).
αGalCer (0.1 μg/g) was intraperitoneally administered (ip) to the mice of the GalCer group on Day-7, and physiological saline was intravenously administered thereto on Days 0, 2, and 4.
PBS was intraperitoneally administered (ip) to the mice of the DOX group on Day-7, and doxorubicin (6 mg/kg) was intravenously administered thereto on Days 0, 2, and 4.
αGalCer (0.1 μg/g) was intraperitoneally administered (ip) to the mice of the Galfer+DOX group on Day-7, and doxorubicin (6 mg/kg) was intravenously administered thereto on Days 0, 2, and 4.
The body weight, the blood pressure, the echocardiogram, the organ weight, the expression level of Vα14Jα18, the cardiac function, and inflammatory cytokines of each mouse at the time point of Day 14 were evaluated. Echocardiography was performed by anesthetizing mice with pentobarbital using an ultrasonic recording device EUB-8000 (trade name of Hitachi Medical Corporation). The left ventricular end-diastolic dimension and the left ventricular systolic end-systolic dimension were measured from the echo image, and the left ventricular fractional shortening rate serving as an index of the left ventricular contractility was calculated by an expression of “(left ventricular end-diastolic dimension—left ventricular systolic end-systolic dimension)left ventricular end-diastolic dimension×100”.

Balb/c mice = assay: Difference between α-GalCer administration and α-GalCer/DC administration (western blotting of Stat1, Stat6); type: in vivo; details: only α-GalCer administered, 4 days
Method: The differences in expression levels of proteins Stat1 and Stat6 and degrees of phosphorylation in a case where only α-GalCer was administered and in a case where DC was administered as a carrier (that is, α-GalCer/DC was administered, the number of administered cells: 3×10^6) were evaluated by western blotting.
In the test, α-GalCer alone or α-GalCer/DC was administered to the Balb/c mice, and the expression level of each protein in the myocardium 4 days after the administration was evaluated by western blotting.

humans = details: systemically administered to humans; cited from earlier work
male C57BL6J mice = assay: Doxorubicin-induced cardiomyopathy model mice (DOX mouse): body weight, echocardiography, NKT cells and inflammatory cytokines in myocardium; type: in vivo
Method: Doxorubicin (6 mg/kg) was intravenously administered to male
C57BL6J mice aged 10 to 11 weeks from the tail vein once every two days. That is, in a case where the day when doxorubicin was initially administered was set to Day 0, doxorubicin was injected on Day 2 and Day 4 (total of 3 times of administration). At each time point of Day 0, 7, 14, 21, and 28, weight measurement and echocardiography were performed to evaluate the amounts of NKT cells and the expression levels of inflammatory cytokines in the myocardium.

[9] = IFNγ pretreatment 1, 10, or 50 ng/mL, then TGFβ 10 ng/mL
[10] = doxorubicin 6 mg/kg iv Days 0, 2, 4, Days 0 to 28

IFNγ: interferon (IFN)-γ, cytokine added to cultured cells
phosphorylation of Stat1 by αGalCer/DC observed in myocardial tissues, reproduction in cultured myocardial cells [1]: reproduced
cell death of inflammatory cells [2]: easily caused cell death
increase in expression levels of Ctgf, Col1a, and Col3a due to TGFβ (myocardial fibroblasts; [9]): inhibited in a dose-dependent manner
phosphorylation ratio of Smad2 and Smad3 (myocardial fibroblasts; [9]): decreased in a dose-dependent manner
expression levels of genes (Ctgf, Col1a, and Col3a) [3]: significantly decreased in a dose-dependent manner
p-Stat1 over time ([4]; IFN-γ 50 ng/mL): increased immediately after the stimulation
pPLN over time ([4]; IFN-γ 50 ng/mL): phosphorylated with a slight delay
phosphorylation of PLN ([4]; IFN-γ 1, 10, and 50 ng/mL): phosphorylated
expression levels and phosphorylation of Stat1 [5]: increased
expression levels of Angpt1 [6]: increased in a dose-dependent manner

TGFβ
expression levels of Ctgf, Col1a, and Col3a (myocardial fibroblasts; TGFβ 10 ng/mL, no pretreatment): increased
expression levels of pSmad2 and pSmad3 (myocardial fibroblasts; TGFβ 10 ng/mL, no pretreatment): increased

CCCCCCCCCCCCCCCCCCCCCCCCCC(=O)N[C@@H](CO[C@H]1O[C@H](CO)[C@H](O)[C@H](O)[C@H]1O)[C@H](O)[C@H](O)CCCCCCCCCCCCCC [αGalCer, α-Galactosylceramide]
expression level of IFNγ [7]: increased
expression levels of inflammatory cytokines [7]: without decreasing
apoptosis of myocardial cells (TUNEL staining) [8]: inhibited
left ventricular end-systolic dimension (LVDs) ([8]; Day 14): improved to the same extent as the mice in the other groups
left ventricular fractional shortening rate (FS) ([8]; Day 14): improved to the same extent as the mice in the other groups
WH/TL and LV/TL ([8]; Day 14): improved
increase of expression level of Vα14Jα18 ([8]; αGalCer 0.1 μg/g ip Day-7, mice with DOX cardiomyopathy, Day 14): approximately 10.6 times
activation reaction of Stat1 in the myocardium (Balb/c mice): extremely weak
dose dependence of Stat1 activation (Balb/c mice): not observed
liver damage (humans): serious liver damage

COc1cccc2c1C(=O)c1c(O)c3c(c(O)c1C2=O)C[C@@](O)(C(=O)CO)C[C@@H]3O[C@H]1C[C@H](N)[C@H](O)[C@H](C)O1 [doxorubicin]
expression level of IL-6 (male C57BL6J mice; Day 7, vs Control): significantly increased
expression levels of IL-1β and TNF-α (male C57BL6J mice; Day 7, vs Control): decreased
expression levels of IL-1β, IL-6, and TNF-α (male C57BL6J mice; Day 14, vs doxorubicin non-administration group): all significantly increased
expression level of Vα14Jα18 (male C57BL6J mice; Days 7 and 14, Control set to 1): decreased
body weight (BW) (male C57BL6J mice; [10]): reduced after Day 7 tended to gradually increase
left ventricular fractional shortening rate (FS) (male C57BL6J mice; [10]): not improved
apoptosis of myocardial cells (TUNEL staining) [8]: observed
left ventricular end-systolic dimension (LVDs) ([8]; Day 14): large
left ventricular fractional shortening rate (FS) ([8]; Day 14): small
WH/TL and LV/TL ([8]; Day 14): significantly reduced

B1: IL4: interleukin-4, cytokine added to cultured cells (protein, UniProt P05112 25-153, looked up)
Interleukin-4: HKCDITLQEIIKTLNSLTEQKTLCTELTVTDIFAASKNTTEKETFCRAATVLRQFYSHHEKDTRCLGATAQQFHRHKQLIRFLKRLDRNLWGLAGLNSCPVKEANQSTLENFLERLKTIMREKYSKCSS
phosphorylation of Stat1 by αGalCer/DC observed in myocardial tissues, reproduction in cultured myocardial cells [1]: reproduced
expression levels of genes (Ctgf, Col1a, and Col3a) [3]: the same as those in the non-administration group
phosphorylation of Stat6 [5]: increased in a dose-dependent manner
expression levels of Angpt1 [6]: not increased

B2: IL10: interleukin-10, cytokine added to cultured cells (protein, UniProt P22301 19-178, looked up)
Interleukin-10: SPGQGTQSENSCTHFPGNLPNMLRDLRDAFSRVKTFFQMKDQLDNLLLKESLLEDFKGYLGCQALSEMIQFYLEEVMPQAENQDPDIKAHVNSLGENLKTLRLRLRRCHRFLPCENKSKAVEQVKNAFNKLQEKGIYKAMSEFDIFINYIEAYMTMKIRN
phosphorylation of Stat1 by αGalCer/DC observed in myocardial tissues, reproduction in cultured myocardial cells [1]: not reproduced
expression levels of genes (Ctgf, Col1a, and Col3a) [3]: the same as those in the non-administration group
phosphorylation of Stat6 [5]: not found
expression levels of Angpt1 [6]: not increased

B3: IFNγ: interferon (IFN)-γ, cytokine added to cultured cells (protein, UniProt P01579 24-161, looked up)
Interferon gamma: QDPYVKEAENLKKYFNAGHSDVADNGTLFLGILKNWKEESDRKIMQSQIVSFYFKLFKNFKDDQSIQKSVETIKEDMNVKFFNSNKKKRDDFEKLTNYSVTDLNVQRKAIHELIQVMAELSPAAKTGKRKRSQMLFRG
cell death of myocardial cells [2]: did not cause cell death
